Laboratory results published in patent publication US9375496B2, “Halogenated compounds for cancer imaging and treatment and methods for their use” (The University of British Columbia, priority 2013, dated 2016).

Columns and labels:
LNCaP cells = experiment: Androgen-dependent proliferation of LNCaP cells, alamarBlue Cell Viability Assay; assay type: cell-based; settings: LNCaP treated with R1881, day 4, alamarBlue
Excerpt: (§1) Effects of 8d (also referred to as I-EPI-002) on androgen-dependent proliferation of LNCaP cells treated with R1881 were compared with PC3 and DU145 cell viability by alamarBlue Cell Viability Assay (FIG. 16).

PC3 cells = experiment: PC3 cell viability, alamarBlue Cell Viability Assay; assay type: cell-based; settings: day 3, at concentrations that reduced LNCaP proliferation
Excerpt: as §1

estrogen receptor-α (ER) = biological target: T1, estrogen receptor-α (ER) (Homo sapiens, UniProt P03372); experiment: ERE-luciferase reporter assay in LNCaP cells cotransfected with full-length human ERα; assay type: cell-based; settings: 1.9 μM 8d, 10 nM E2 (estradiol), 24 h, LNCaP cells (FIG. 2D)
T1 construct: expression plasmids for full-length human ERα; expressed in transfected cells; host or cells: LNCaP
T1 sequence (P03372 1-595): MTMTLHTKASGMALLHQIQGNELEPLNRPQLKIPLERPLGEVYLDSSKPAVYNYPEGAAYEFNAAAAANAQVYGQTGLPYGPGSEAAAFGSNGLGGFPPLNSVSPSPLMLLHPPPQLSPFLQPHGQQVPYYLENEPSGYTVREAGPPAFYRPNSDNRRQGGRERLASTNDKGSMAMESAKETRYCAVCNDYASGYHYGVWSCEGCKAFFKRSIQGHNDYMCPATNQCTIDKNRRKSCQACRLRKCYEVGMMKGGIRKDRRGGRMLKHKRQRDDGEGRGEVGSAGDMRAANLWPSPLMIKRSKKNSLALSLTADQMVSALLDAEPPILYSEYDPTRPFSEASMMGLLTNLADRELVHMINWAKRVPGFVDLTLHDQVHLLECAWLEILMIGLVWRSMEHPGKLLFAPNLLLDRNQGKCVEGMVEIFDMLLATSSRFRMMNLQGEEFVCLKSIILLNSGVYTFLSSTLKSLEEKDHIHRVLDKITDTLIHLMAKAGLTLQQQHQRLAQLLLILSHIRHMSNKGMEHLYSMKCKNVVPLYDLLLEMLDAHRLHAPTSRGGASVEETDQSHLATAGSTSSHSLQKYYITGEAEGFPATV
Procedure: To assess specificity for the AR, parallel experiments were performed in LNCaP cells with endogenous AR and ectopic expression of other closely related human hormone receptors such as the progesterone receptor-beta (PRβ), glucocorticoid receptor (GR) and estrogen receptor-α (ER).
For 8d, 1 μg/mL=1.9 μM in FIGS. 2A-2D.

recombinant LBD of GR = biological target: T2, recombinant LBD of GR (Homo sapiens, UniProt P04150); experiment: Competitive ligand-binding assay (fluorescent polarization), recombinant GR LBD; settings: 1 nM fluorescently labeled ligand, 5 h incubation, serial dilution
T2 sequence (P04150 524-758 limits assumed): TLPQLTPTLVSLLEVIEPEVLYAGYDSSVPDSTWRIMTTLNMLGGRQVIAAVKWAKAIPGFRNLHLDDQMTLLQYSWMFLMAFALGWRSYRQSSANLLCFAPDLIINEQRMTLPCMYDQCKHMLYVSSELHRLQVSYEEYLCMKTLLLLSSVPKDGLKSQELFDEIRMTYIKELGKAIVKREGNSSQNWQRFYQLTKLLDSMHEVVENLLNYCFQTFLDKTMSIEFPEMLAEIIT
Procedure: (§2) Competitive ligand-binding assays to detect the displacement of fluorescently labeled ligand from recombinant LBDs (ligand binding domains) of AR, PR, GR and estrogen receptor (ER) by R1881, MDV3100, Z (also referred to as EPI-002 or EPI) or 8d (also referred to as iodinated EPI) were performed. FIGS. 14A-14E display competitive ligand-binding curves to indicate whether R1881, Z, antiandrogens (enzalutamide, hydroxyflutamide, bicalutamide) or 8d can displace 1 nM fluorescently labeled cognant ligand from recombinant LBDs of steroid hormone receptors by using fluorescent polarization (mP). Serial dilution was performed for each test compound. Mixtures were incubated for 5 h before measurement of fluorescent polarization.

recombinant LBD of AR = biological target: T3, recombinant LBD of AR (Homo sapiens, UniProt P10275); experiment: Competitive ligand-binding assay (fluorescent polarization), recombinant AR LBD; settings: 1 nM fluorescently labeled ligand, 5 h incubation, serial dilution
T3 sequence (P10275 669-900 limits assumed): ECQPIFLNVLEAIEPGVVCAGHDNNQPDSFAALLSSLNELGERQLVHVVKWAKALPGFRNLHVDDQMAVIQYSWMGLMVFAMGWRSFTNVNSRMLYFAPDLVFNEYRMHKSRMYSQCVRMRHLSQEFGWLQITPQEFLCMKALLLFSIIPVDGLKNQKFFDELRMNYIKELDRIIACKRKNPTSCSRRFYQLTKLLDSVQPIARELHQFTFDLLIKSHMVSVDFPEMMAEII
Procedure: as §2

`CC(C)(c1ccc(OC[C@H](O)CO)cc1)c1ccc(OC[C@H](O)CCl)c(I)c1` [Compound 8d, (R)-3-(4-(2-(4-((S)-3-chloro-2-hydroxypropoxy)-3-iodophenyl)propan-2-yl)phenoxy)propane-1,2-diol] was tested. Which “AR-dependent proliferation of LNCaP cells” value (LNCaP cells) did it give?
Its value is “reduced”.

What about the “viability of PC3 cells” value (PC3 cells) of the same molecule?
Its value is “no effect”.

What about the “ERα activity (ERE-luciferase)” value (estrogen receptor-α (ER)) of the same molecule?
The value was “not inhibited”.

What about the “binding to LBD of GR (displacement of fluorescently labeled ligand)” value (recombinant LBD of GR) of the same molecule?
Its value is “does not bind”.

And the “binding to LBD of AR (displacement of fluorescently labeled ligand)” value (recombinant LBD of AR)?
The value was “does not bind”.
